Measured values reported in US20230382870A1, “N-AROMATIC AMIDE COMPOUNDS, PREPARATION METHODS AND USES THEREOF” (SHENZHEN EDK PHARMACEUTICAL TECHNOLOGY CO., LTD., priority 2021, published 2023).

These molecules were tested against androgen receptor (Rattus norvegicus (Rat), UniProt P15207) (assay: Androgen receptor competition binding with radiolabeled dihydrotestosterone (hydroxyapatite separation, scintillation counting)). Settings: androgen receptor from prostate of male SD rats; competition with radiolabeled DHT; 4 Celsius degrees, 15 hours.
Sequence of androgen receptor (P15207 whole entry S389L): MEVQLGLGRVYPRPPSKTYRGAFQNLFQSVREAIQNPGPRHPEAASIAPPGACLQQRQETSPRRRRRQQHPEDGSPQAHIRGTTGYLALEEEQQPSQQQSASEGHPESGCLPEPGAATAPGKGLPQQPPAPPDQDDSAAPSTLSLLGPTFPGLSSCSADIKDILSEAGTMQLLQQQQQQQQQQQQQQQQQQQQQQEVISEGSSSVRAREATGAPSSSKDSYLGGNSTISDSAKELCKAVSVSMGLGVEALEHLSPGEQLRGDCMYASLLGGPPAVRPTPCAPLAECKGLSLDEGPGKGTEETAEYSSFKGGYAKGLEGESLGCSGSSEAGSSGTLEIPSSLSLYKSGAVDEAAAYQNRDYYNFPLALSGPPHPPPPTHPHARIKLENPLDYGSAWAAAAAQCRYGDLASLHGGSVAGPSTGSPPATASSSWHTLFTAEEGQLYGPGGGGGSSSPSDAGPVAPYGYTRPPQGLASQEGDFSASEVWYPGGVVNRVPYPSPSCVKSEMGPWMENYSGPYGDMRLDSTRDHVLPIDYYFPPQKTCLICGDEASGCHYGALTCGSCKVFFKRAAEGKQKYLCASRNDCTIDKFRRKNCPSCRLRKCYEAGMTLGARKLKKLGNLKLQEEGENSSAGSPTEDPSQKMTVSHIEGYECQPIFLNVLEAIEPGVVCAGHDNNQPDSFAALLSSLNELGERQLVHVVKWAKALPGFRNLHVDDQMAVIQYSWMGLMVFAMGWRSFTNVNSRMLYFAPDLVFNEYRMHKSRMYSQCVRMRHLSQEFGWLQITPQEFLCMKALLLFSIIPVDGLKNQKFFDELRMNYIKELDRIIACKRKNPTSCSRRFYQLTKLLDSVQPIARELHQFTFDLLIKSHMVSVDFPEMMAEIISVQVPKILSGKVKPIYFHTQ
Description: Reagents and instruments: radiolabeled dihydrotestosterone […] and unlabelled dihydrotestosterone (DHT) purchased from Sigma-Aldrich (St. Louis, Mo.), scintillation solution purchased from Perkin Elmer Life Sciences (Boston, Mass.), hydroxyapatite (HAP) suspension purchased from Bio-Rad Laboratories (Hercules, Calif.), buffer (containing 10 mM Tris, 1.5 mM disodium EDTA, 0.25 M sucrose, 10 mM sodium molybdate and 1 mM PMSF, pH value adjusted to 7.4), and hydroxyapatite (HAP) solution (containing 50 mM Tris and 1 mM KH2PO4, pH value adjusted to 7.4).
In the present invention, the biological activity of the N-aromatic amide compounds with the formula (I) and/or (II) is measured accord to the following method. […] The androgen receptor (prepared from the prostate of male SD rats, 200-250 g of male Sprague-Dawley rats) and the radiolabeled dihydrotestosterone ([…], 84 Ci/mmol) are added to the buffer and well mixed for preparing reaction solution. The concentration gradients of the diluted compounds are respectively added into the reaction solution and well mixed, and the resulting mixtures are incubated at 4 Celsius degrees for 15 hours, so that the compounds and the dihydrotestosterone can fully react with the androgen receptor. Thereafter, the hydroxyapatite (HAP) suspension is added therein, well mixed, incubated for 10 minutes at 4 Celsius degrees, and centrifuged for removing the supernatant containing free dihydrotestosterone. The dihydrotestosterone bound to the androgen receptor is adsorbed in the hydroxyapatite and thus retained in the precipitated particles, thereby separating the bound and unbound radiolabelled ligands. A scintillation solution is added to the precipitate, well mixed, and detected for the radioactivity intensity using a WALLACE MicroBeta Trilux Scintillator (Perkin Elmer).The detected radioactivity intensity values for the concentration gradients are processed to obtain values of ICso and K. The specific biological activity (the competition results between androgen receptor ligand and radioligand) is shown in the following table: […]

**Q.** `CC(C)(C(=O)Nc1ccc(C#N)c(C(F)(F)F)c1)n1ccc2c(F)cc(-c3ccc(F)cc3)cc21` [Example 1, N-(4-cyano-3-trifluoromethyl)-phenyl-2-[4-fluoro-6-(4-fluorophenyl)-1H-indolyl-1-yl]-2-methylpropanamide] was tested. Which IC50 did it give?
**A.** 546 nM

**Q.** How did the IC50 turn out when `CC(C)(C(=O)Nc1ccc(C#N)c(C(F)(F)F)c1)n1ccc2cc(F)c(-c3ccccc3)cc21` [Example 2, N-(4-cyano-3-trifluoromethyl) phenyl-2-(5-fluoro-6-phenyl-1H-indolyl-1-yl)-2-methylpropanamide] was run?
**A.** 337 nM

**Q.** Which results are given for `CC(C)(C(=O)Nc1ccc(C#N)c(C(F)(F)F)c1)n1ccc2cc(F)ccc21` [Example 3, N-(4-cyano-3-trifluoromethyl)-phenyl-2-(5-fluoro-1H-indolyl-1-yl)-2-methylpropanamide]?
**A.** IC50: 215 nM; Ki: 367 nM

**Q.** Which IC50 does the source give for `CC(C)(C(=O)Nc1ccc(C#N)c(C(F)(F)F)c1)n1ccc2c(F)cccc21` [Example 4, N-(4-cyano-3-trifluoromethyl)-phenyl-2-(4-fluoro-1H-indolyl-1-yl)-2-methylpropanamide] here?
**A.** 246 nM

**Q.** And the Ki?
**A.** 491 nM

**Q.** What does the source list for `CC(C)(C(=O)Nc1ccc(C#N)c(C(F)(F)F)c1)n1ccc2ccc(F)cc21` [Example 5, N-(4-cyano-3-trifluoromethyl)-phenyl-2-(6-fluoro-1H-indolyl-1-yl)-2-methylpropanamide]?
**A.** IC50: 227 nM; Ki: 314 nM

**Q.** Which IC50 does the source give for `CC(C)(C(=O)Nc1ccc(C#N)c(C(F)(F)F)c1)n1ccc2cc([N+](=O)[O-])ccc21` [Example 6, N-(4-cyano-3-trifluoromethyl)-phenyl-2-(5-nitro-1H-indolyl-1-yl)-2-methylpropanamide] here?
**A.** 261 nM

**Q.** What about the Ki of the same molecule?
**A.** 421 nM

**Q.** Which IC50 does the source give for `CC(C)(C(=O)Nc1ccc(C#N)c(C(F)(F)F)c1)n1ccc2cc(C(F)(F)F)ccc21` [Example 8, N-(4-cyano-3-trifluoromethyl)-phenyl-2-(5-trifluoromethyl-1H-indolyl-1-yl)-2-methylpropanamide] here?
**A.** 357 nM

**Q.** And the Ki?
**A.** 440 nM

**Q.** How did the IC50 turn out when `CC(C)(C(=O)Nc1ccc(C#N)c(C(F)(F)F)c1)n1ccc2cc(C#N)ccc21` [Example 9, N-(4-cyano-3-trifluoromethyl)-phenyl-2-(5-cyano-1H-indolyl-1-yl)-2-methylpropanamide] was run?
**A.** 232 nM

**Q.** What about the Ki of the same molecule?
**A.** 445 nM

**Q.** With `CC(C)(C(=O)Nc1ccc(C#N)c(C(F)(F)F)c1)N1CCc2cc(F)ccc21` [Example 10, N-(4-cyano-3-trifluoromethyl)-phenyl-2-(5-fluoro-1H-2,3-dihydroindolyl-1-yl)-2-methylpropanamide] as the molecule, how does the IC50 read?
**A.** 437 nM

**Q.** And the Ki?
**A.** 387 nM

**Q.** Which results are given for `CC(C)(C(=O)Nc1ccc(C#N)c(C(F)(F)F)c1)N1CCc2cc(F)c(F)cc21` [Example 11, N-(4-cyano-3-trifluoromethyl)-phenyl-2-(5,6-difluoro-1H-2,3-dihydroindolyl-1-yl)-2-methylpropanamide]?
**A.** IC50: 505 nM; Ki: 505 nM

**Q.** With `CC(C)(C(=O)Nc1ccc(C#N)c(Cl)c1)n1ccc2cc(F)ccc21` [Example 12, N-(3-chloro-4-cyano) phenyl-2-(5-fluoro-1H-indolyl-1-yl)-2-methylpropanamide] as the molecule, how does the IC50 read?
**A.** 205 nM

**Q.** And the Ki?
**A.** 351 nM

**Q.** How did the IC50 turn out when `CC(C)(C(=O)Nc1ccc(C#N)c(C(F)(F)F)c1)n1cc(-c2ccc(F)cc2)c(F)n1` [Example 13, N-(4-cyano-3-trifluoromethyl)-phenyl-2-[3-fluoro-4-(4-fluorophenyl)-1H-pyrazolyl-1-yl]-2-methylpropanamide] was run?
**A.** 416 nM

**Q.** `CC(C)(C(=O)Nc1ccc(C#N)c(C(F)(F)F)c1)n1cc(-c2ccc(F)cc2)cn1` [Example 14, N-(4-cyano-3-trifluoromethyl)-phenyl-2-[4-(4-fluorophenyl)-1H-pyrazolyl-1-yl]-2-methylpropanamide] was tested. Which IC50 did it give?
**A.** 760 nM

**Q.** `CC(C)(C(=O)Nc1ccc(C#N)c(C(F)(F)F)c1)n1cc(F)cn1` [Example 15, N-(4-cyano-3-trifluoromethyl)-phenyl-2-(4-fluoro-1H-pyrazolyl-1-yl)-2-methylpropanamide] was tested. Which IC50 did it give?
**A.** 125 nM

**Q.** Which IC50 does the source give for `CC(C)(C(=O)Nc1ccc(C#N)c(C(F)(F)F)c1)n1ccc(F)n1` [Example 16, N-(4-cyano-3-trifluoromethyl)-phenyl-2-(3-fluoro-1H-pyrazolyl-1-yl)-2-methylpropanamide] here?
**A.** 147 nM

**Q.** For `CC(C)(C(=O)Nc1ccc(C#N)c(C(F)(F)F)c1)n1cc(Cl)cn1` [Example 17, N-(4-cyano-3-trifluoromethyl)-phenyl-2-(4-chloro-1H-pyrazolyl-1-yl)-2-methylpropanamide], which IC50 is on record?
**A.** 116 nM

**Q.** Which IC50 does the source give for `CC(C)(C(=O)Nc1cnc(C#N)c(C(F)(F)F)c1)n1cc(F)cn1` [Example 22] here?
**A.** 73 nM

**Q.** For `N#Cc1ccc(NC(=O)C2(n3cc(F)cn3)CCC2)cc1C(F)(F)F` [Example 23, N-(4-cyano-3-trifluoromethyl)-phenyl-1-(4-fluoro-1H-pyrazolyl-1-yl)-cyclobutane-formamide], which IC50 is on record?
**A.** 115 nM

**Q.** With `N#Cc1ncc(NC(=O)C2(n3cc(F)cn3)CCC2)cc1C(F)(F)F` [Example 24, N-(6-cyano-5-trifluoromethyl-pyridyl-3-yl)-1-(4-fluoro-1H-pyrazolyl-1-yl) -cyclobutane-formamide] as the molecule, how does the IC50 read?
**A.** 68 nM

**Q.** Which IC50 does the source give for `CC(C)(C(=O)Nc1ccc(C#N)c(C(F)(F)F)c1)n1cc(Br)c(F)n1` [Example 25, 2-(4-bromo-3-fluoro-1H-pyrazolyl-1-yl)-N-(4-cyano-3-trifluoromethyl)-phenyl-2-methylpropanamide] here?
**A.** 91 nM

**Q.** `CC(C)(C(=O)Nc1ccc(C#N)c(C(F)(F)F)c1)n1cc(F)c(F)n1` [Example 26, 2-(3,4-difluoro-1H-pyrazolyl-1-yl)-N-(4-cyano-3-trifluoromethyl)-phenyl-2-methylpropanamide] was tested. Which IC50 did it give?
**A.** 75 nM

**Q.** With `CC(C)(C(=O)Nc1ccc(C#N)c(C(F)(F)F)c1)n1cc(Cl)c(F)n1` [Example 29, 2-(3-fluoro-4-chloro-1H-pyrazolyl-1-yl)-N-(4-cyano-3-trifluoromethyl)-phenyl-2-methylpropanamide] as the molecule, how does the IC50 read?
**A.** 105 nM

**Q.** How did the IC50 turn out when `CC(C)(C(=O)Nc1ccc(C#N)c(C(F)(F)F)c1)n1cc(C#N)c(Cl)n1` [Example 30, 2-(3-chloro-4-cyano-1H-pyrazolyl-1-yl)-N-(4-cyano-3-trifluoromethyl)-phenyl-2-methylpropanamide] was run?
**A.** 88 nM
